Laboratory results taken from article PMC7949049 (The Journal of Biological Chemistry, 2020).
Entries after “also recorded” stand apart in the source; their conditions may differ. Positions of bridges follow the written chain, without caps; N, C: chain ends. Non-standard residues stand in square brackets, D forms with d. Residues, ends and D or L forms follow the SMILES beside them. No end group written: not given here. *: point of attachment. 5FAM = O=C1OC2(c3ccc(O)cc3Oc3cc(O)ccc32)c2ccc(C(=O)*)cc21; S5 = C=CCCC[C@](C)(N)C(=O)O; PEG2 = NCCOCCOCCC(=O)O

T1: RalA·GDP (Homo sapiens, UniProt P11233, Q72L)
T1 construct: RalA (pMAT10, residues 1–184, Q72L); His6-MBP (cleaved yes); made in house
T1 sequence (P11233 1-184 Q72L): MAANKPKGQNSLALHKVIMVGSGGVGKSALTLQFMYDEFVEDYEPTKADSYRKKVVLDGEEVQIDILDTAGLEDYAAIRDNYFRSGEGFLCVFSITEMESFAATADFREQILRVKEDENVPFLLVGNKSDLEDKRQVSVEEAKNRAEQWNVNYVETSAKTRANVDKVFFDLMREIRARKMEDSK

T2: RalA (residues 1–184, Q72L) (UniProt P11233 1-184, Q72L)
T2 construct: RalA small GTPase, residues 1-184, constitutively active Q72L; Loaded with [3H]GTP for SPA, with GMPPNP or GDP for fluorescence polarisation; also called RalA·GTP; [3H]-GTP RalA; source: expressed from pMAT10 as His6-MBP fusion, cleaved from its tag as described previously
T2 sequence (looked up): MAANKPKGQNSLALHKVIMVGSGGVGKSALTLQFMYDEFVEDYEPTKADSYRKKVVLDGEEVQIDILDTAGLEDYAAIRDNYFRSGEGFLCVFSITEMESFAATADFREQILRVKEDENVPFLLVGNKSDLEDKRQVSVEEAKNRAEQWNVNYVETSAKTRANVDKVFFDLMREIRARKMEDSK


Key:
[1] = biological target: T1, RalA·GDP; assay: Direct-binding fluorescence polarization, RalA·GDP; conditions: 20 nM FAM-labeled peptide, n = 3, NB = no binding; for Kd: read-out: Kd RalA·GDP, FP
Experimental: (§1) FP experiments were performed on a BMG Labtech Pherastar fluorimeter at 298 K with excitation at 485 nm and emission at 520 nm as described previously ([34]), using 20 nM FAM-labeled peptide. Plates were read after 30 min incubation at room temperature. Data were fitted to a single-site binding model using nonlinear regression analysis in GraphPad prism 8.4 to obtain Kd values and their standard errors.

[2] = biological target: T3, Rac1·GMPPNP (Homo sapiens, UniProt P63000, Q61L); assay: Direct-binding fluorescence polarization, Rac1; conditions: 20 nM FAM-labeled peptide, n = 3, NB = no binding, GTPase up to 100 μM; for Kd: read-out: Kd Rac1·GMPPNP, FP
T3 construct: Rac1 (pGEX-2T, 1–185, Q61L); GST (cleaved yes); made in house
Experimental: as §1

[3] = biological target: T4, RhoA·GMPPNP (Homo sapiens, UniProt P61586, F25N/Q63L); assay: Direct-binding fluorescence polarization, RhoA; conditions: 20 nM FAM-labeled peptide, n = 3, NB = no binding, GTPase up to 100 μM; for Kd: read-out: Kd RhoA·GMPPNP, FP
T4 construct: RhoA (pGEX-2T, 1–186, F25N/Q63L); GST (cleaved yes); made in house
T4 sequence (P61586 1-186 F25N/Q63L): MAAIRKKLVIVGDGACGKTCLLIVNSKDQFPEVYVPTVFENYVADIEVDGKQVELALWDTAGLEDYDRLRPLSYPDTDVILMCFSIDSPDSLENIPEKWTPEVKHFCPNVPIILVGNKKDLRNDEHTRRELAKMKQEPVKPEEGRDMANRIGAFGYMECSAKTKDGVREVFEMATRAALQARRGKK
Experimental: as §1

[4] = biological target: RalA; assay: Direct-binding SPA of RalA to His-tagged RLIP76 RBD variants; conditions: [3H]GTP-labeled RalA titrated, 80 nM His-tagged RBD; n = 2; experiment of Fig. S2
Experimental: Ral proteins were labeled with [^3H]GTP for use in SPAs as follows. [^3H]GTP (0.15 mCi, PerkinElmer Life Sciences) was dried by centrifugal evaporation. Ral (0.7 mg) and 0.3 M (NH4)2SO4 were added in 140 μl of buffer (10 mM Tris-HCl, 150 mM NaCl, 1 mM DTT, pH 7.5). The mixture was incubated at 37 °C for 3 h, and unbound nucleotide was removed with Sephadex G25 spin columns (GE Healthcare).
[^3H]GTP·Ral proteins were titrated at the concentrations indicated in the results. […] The equilibrium binding constants (Kd) for the effector–Ral interactions were determined by monitoring the SPA signal in the presence of varying concentrations of [^3H]GTP·Ral and fitted using nonlinear regression with the computer program Grafit.

[5] = biological target: T2, RalA (residues 1–184, Q72L); assay: scintillation proximity assay (competition); His-tagged wild-type RLIP76 RBD immobilised on SPA beads, fixed [3H]GTP·RalA (100 nM) or [3H]GTP·RalB (250 nM), competitor RBD or peptide titrated; pure competition model, apparent Kd (Ki); conditions: both partners purified

Row | Kd RalA·GDP, FP [1] | Kd [1] [µM] | Kd Rac1·GMPPNP, FP [2] | Kd [2] [µM] | Kd RhoA·GMPPNP, FP [3] | Kd [3] [µM] | Kd [5] [µM] | Molecule | apparent Kd RalA, direct SPA (Fig. S2) [4]
1 | binding was too weak | > 100 | binding was too weak | > 100 | binding was too weak | > 100 |  | CC[C@H](C)[C@H](NC(=O)[C@H](CCCNC(=N)N)NC(=O)[C@H](CC(C)C)NC(=O)[C@H](CCC(=O)O)NC(=O)[C@H](CCC(=O)O)NC(=O)[C@H](Cc1c[nH]c2ccccc12)NC(=O)[C@H](CC(C)C)NC(=O)[C@]1(C)CCCC=CCCC[C@](C)(NC(=O)[C@H](CC(C)C)NC(=O)CCOCCOCCNC(=O)c2ccc3c(c2)C(=O)OC32c3ccc(O)cc3Oc3cc(O)ccc32)C(=O)N[C@@H](CCCCN)C(=O)N[C@@H](CCC(=O)O)C(=O)N[C@@H](Cc2c[nH]cn2)C(=O)N1)C(=O)N[C@@H](CCCCN)C(=O)N[C@H](C(=O)N[C@@H](C)C(=O)N[C@@H](CCC(=O)O)C(=O)N[C@@H](CCCNC(=N)N)C(=O)N[C@@H](CCCNC(=N)N)C(=O)N[C@@H](CCCCN)C(=O)N[C@@H](CCCCN)C(=O)N[C@@H](CCCNC(=N)N)C(=O)N[C@@H](CCC(=O)O)C(=O)N[C@@H](C)C(N)=O)[C@@H](C)O [HLR-sol] ({5FAM-PEG2}-L[S5]KEH[S5]LWEELRIKTAERRKKREA-NH2; staple 2-6) | 
2 |  |  |  |  |  |  |  | ETQAGIKEEIRRQEFLLNSLHRDLQGGIKDLSKWDRAWEVSQILSALRRKLREA [WDASQSR] | no fit could be obtained as binding was too weak; also recorded: did not bind
3 | binding was too weak | > 100 | binding was too weak | > 100 | binding was too weak | > 100 |  | CC[C@H](C)[C@H](NC(=O)[C@H](CCCNC(=N)N)NC(=O)[C@H](CC(C)C)NC(=O)[C@H](CCC(=O)O)NC(=O)[C@H](CCC(=O)O)NC(=O)[C@H](Cc1c[nH]c2ccccc12)NC(=O)[C@H](CC(C)C)NC(=O)[C@]1(C)CCCC=CCCC[C@](C)(NC(=O)[C@H](CC(C)C)NC(=O)CCOCCOCCNC(=O)c2ccc3c(c2)C(=O)OC32c3ccc(O)cc3Oc3cc(O)ccc32)C(=O)N[C@@H](CCCCN)C(=O)N[C@@H](CCC(=O)O)C(=O)N[C@@H](CCC(=O)O)C(=O)N1)C(=O)N[C@@H](CCCCN)C(=O)N[C@H](C(=O)N[C@@H](C)C(=O)N[C@@H](CCC(=O)O)C(=O)N[C@@H](CCCCN)C(=O)N[C@@H](CCCNC(=N)N)C(=O)N[C@@H](CCCCN)C(=O)N[C@@H](CCCCN)C(=O)N[C@@H](CCCNC(=N)N)C(=O)N[C@@H](CCC(=O)O)C(=O)N[C@@H](C)C(N)=O)[C@@H](C)O [L-sol] ({5FAM-PEG2}-L[S5]KEE[S5]LWEELRIKTAEKRKKREA-NH2; staple 2-6) | 
4 |  |  |  |  |  |  | 48.6 | L[S5]KEE[S5]LWEEQRIKTAEKRKKREA-NH2 (staple 2-6; N-terminus assumed; SMILES CC[C@H](C)[C@H](NC(=O)[C@H](CCCNC(=N)N)NC(=O)[C@H](CCC(N)=O)NC(=O)[C@H](CCC(=O)O)NC(=O)[C@H](CCC(=O)O)NC(=O)[C@H](Cc1c[nH]c2ccccc12)NC(=O)[C@H](CC(C)C)NC(=O)[C@]1(C)CCCC=CCCC[C@](C)(NC(=O)[C@@H](N)CC(C)C)C(=O)N[C@@H](CCCCN)C(=O)N[C@@H](CCC(=O)O)C(=O)N[C@@H](CCC(=O)O)C(=O)N1)C(=O)N[C@@H](CCCCN)C(=O)N[C@H](C(=O)N[C@@H](C)C(=O)N[C@@H](CCC(=O)O)C(=O)N[C@@H](CCCCN)C(=O)N[C@@H](CCCNC(=N)N)C(=O)N[C@@H](CCCCN)C(=O)N[C@@H](CCCCN)C(=O)N[C@@H](CCCNC(=N)N)C(=O)N[C@@H](CCC(=O)O)C(=O)N[C@@H](C)C(N)=O)[C@@H](C)O) [wt-sol stapled peptide] | 
